Measurements reported in the supplement of paper PMC8960247.
± gives the standard error.

Tests used:
621-102 (TSC2-deficient) [1] = test: relative viability vs DMSO (fraction); higher = less cytotoxic; conditions: serum: 0.1% FBS, 72 h
UMB1949 (TSC2-deficient) = test: as above; conditions: serum: 0.1% FBS, 72 h;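 further: renal angiomyolipoma cell lines screened in 384-well plates, viability normalized per plate to DMSO-treated cells, each plate carrying 50 nM rapamycin and 1 µM staurosporine controls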
621-102 (TSC2-deficient) [2] = test: relative viability vs DMSO; higher = less cytotoxic; conditions: serum: 10% FBS, 72 h
621-103 (TSC2-rescued) = test: as above; conditions: serum: 10% FBS, 72 h

SMILES	relative viability (621-102 (TSC2-deficient) [1]; 0.0128 nM)	relative viability (621-102 (TSC2-deficient) [1]; 0.064 nM)	relative viability (621-102 (TSC2-deficient) [1]; 0.32 nM)	relative viability (621-102 (TSC2-deficient) [1]; 1.6 nM)	relative viability (621-102 (TSC2-deficient) [1]; 8 nM)	relative viability (621-102 (TSC2-deficient) [1]; 40 nM)	relative viability (621-102 (TSC2-deficient) [1]; 200 nM)	relative viability (621-102 (TSC2-deficient) [1]; 1000 nM)	relative viability (621-102 (TSC2-deficient) [1]; 5000 nM)	relative viability (UMB1949 (TSC2-deficient); 0.0128 nM)	relative viability (UMB1949 (TSC2-deficient); 0.064 nM)	relative viability (UMB1949 (TSC2-deficient); 0.32 nM)	relative viability (UMB1949 (TSC2-deficient); 1.6 nM)	relative viability (UMB1949 (TSC2-deficient); 8 nM)	relative viability (UMB1949 (TSC2-deficient); 40 nM)	relative viability (UMB1949 (TSC2-deficient); 200 nM)	relative viability (UMB1949 (TSC2-deficient); 1000 nM)	relative viability (UMB1949 (TSC2-deficient); 5000 nM)	relative viability (621-102 (TSC2-deficient) [2]; 0.0001 µM)	relative viability (621-102 (TSC2-deficient) [2]; 0.001 µM)	relative viability (621-102 (TSC2-deficient) [2]; 0.01 µM)	relative viability (621-102 (TSC2-deficient) [2]; 0.1 µM)	relative viability (621-102 (TSC2-deficient) [2]; 1 µM)	relative viability (621-102 (TSC2-deficient) [2]; 10 µM)	relative viability (621-103 (TSC2-rescued); 0.0001 µM)	relative viability (621-103 (TSC2-rescued); 0.001 µM)	relative viability (621-103 (TSC2-rescued); 0.01 µM)	relative viability (621-103 (TSC2-rescued); 0.1 µM)	relative viability (621-103 (TSC2-rescued); 1 µM)	relative viability (621-103 (TSC2-rescued); 10 µM)
CCN1CCN(Cc2ccc(-c3cc4c(N[C@H](C)c5ccccc5)ncnc4[nH]3)cc2)CC1 [AEE788]	1.06	0.968	1.01	0.786	0.612	0.64	0.156	0.034	0.00903	1.02	0.971	1	1.07	0.964	1.01	0.767	0.305	0.00689	106 ± 2.1%	107.3 ± 1%	106 ± 4.4%	104 ± 1.6%	100 ± 3.6%	36.7 ± 12%	94.8 ± 1.2%	107.1 ± 0.38%	103.4 ± 0.79%	102 ± 3.6%	100 ± 3.8%	10.7 ± 1%
O=C(Nc1c[nH]nc1-c1nc2ccc(CN3CCOCC3)cc2[nH]1)NC1CC1 [AT9283]	1.09	0.98	0.952	0.945	0.718	0.031	0.0179	0.00825	0.00249	1.11	1.02	0.973	0.996	0.963	0.0359	0.0512	0.00329	0.00115	94.6 ± 1.6%	103.4 ± 0.37%	106 ± 1.6%	85.8 ± 4.9%	53.12 ± 0.43%	15.2 ± 1.2%	73 ± 1.1%	89.4 ± 2.2%	81.5 ± 2.2%	71.4 ± 2.8%	31.5 ± 3.9%	14.6 ± 0.54%
NC(=O)Nc1cc(-c2cccc(F)c2)sc1C(=O)N[C@H]1CCCNC1 [AZD7762]	0.981	0.92	0.935	0.731	0.244	0.0116	0.00396	0.000482	0.00108	0.976	0.981	1.07	1.08	0.341	0.00441	0.00215	0.000402	0.00128	102 ± 4.3%	108 ± 1.8%	88.76 ± 0.17%	32.13 ± 0.32%	17.1 ± 0.87%	6.55 ± 0.31%	99 ± 1.1%	98.96 ± 0.94%	98.3 ± 0.4%	83.6 ± 0.97%	22.27 ± 0.029%	3.24 ± 0.41%
O=C(/C=C/c1cccc(S(=O)(=O)Nc2ccccc2)c1)NO [Belinostat(PXD101)]	1.07	1.04	1.01	1.03	1.18	0.923	0.646	0.271	0.0621	1.11	0.925	1.01	0.986	0.987	0.854	0.277	0.00312	0.001	109 ± 3.7%	111.1 ± 1.1%	107 ± 1.1%	94.4 ± 1.9%	85.6 ± 1.9%	44.6 ± 0.66%	97.7 ± 1.1%	97 ± 2.6%	97.46 ± 0.88%	92.7 ± 1.6%	77.17 ± 0.11%	9.88 ± 0.36%
CC(C)C[C@H](NC(=O)[C@H](Cc1ccccc1)NC(=O)c1cnccn1)B(O)O [Bortezomib]	1.07	1.03	0.903	0.16	0.0107	0.00306	0.00178	0.000877	0.000659	1.02	0.99	1.02	0.62	0.0154	0.00739	0.0026	0.000806	0.000906	110 ± 1.3%	102 ± 2.8%	5.8 ± 0.15%	3.06 ± 0.034%	2.21 ± 0.16%	1.87 ± 0.13%	97.4 ± 1.6%	90 ± 4.2%	2.332 ± 0.012%	1.43 ± 0.049%	1.14 ± 0.0052%	1.03 ± 0.066%
CC(C)C[C@@H](C(=O)N[C@H](C(=O)OC1CCCC1)c1ccccc1)[C@H](O)C(=O)NO [CHR-2797]	0.86	0.866	0.628	0.884	0.614	0.512	0.414	0.345	0.144	1.06	0.998	0.978	1.02	0.982	0.804	0.875	0.595	0.0151	112 ± 1.6%	116 ± 2.4%	114.53 ± 0.03%	102 ± 1.6%	89.8 ± 1.5%	82 ± 2.1%	103 ± 2.1%	105.3 ± 0.65%	115 ± 1.4%	111 ± 7.5%	104.4 ± 0.14%	89.6 ± 2.7%
Nc1nc(Cl)nc2c1ncn2[C@@H]1O[C@H](CO)[C@@H](O)[C@@H]1F [Clofarabine]	1.11	0.982	1.02	0.905	0.929	0.0836	0.0188	0.0106	0.00741	1.06	0.989	1.02	1.05	1.05	0.404	0.00754	0.00286	0.00163	114 ± 4.2%	104.4 ± 0.4%	103 ± 2.5%	96.69 ± 0.62%	49.3 ± 1.3%	51.8 ± 2.4%	107 ± 2.7%	101.98 ± 0.033%	102.7 ± 0.28%	91.6 ± 3.6%	47.38 ± 0.098%	46.8 ± 2.5%
CNC(=O)c1cc(Oc2ccc(NC(=O)Nc3cc(C(C)(C)C)nn3-c3ccc4ncccc4c3)c(F)c2)ccn1 [DCC-2036]	1.65	1.68	1.69	1.63	1.59	1.62	1.43	0.931	0.0177	1.18	1.26	1.25	1.24	1.32	0.354	1.05	0.00706	0.00896	100 ± 5.8%	97.14 ± 0.62%	92.2 ± 4.6%	87 ± 1.4%	87.2 ± 2%	9.801 ± 0.031%	96.92 ± 0.83%	98.2 ± 4.1%	90.7 ± 1.8%	69.51 ± 0.61%	59.4 ± 0.26%	9.01 ± 0.21%
Nc1ncn([C@H]2C[C@H](O)[C@@H](CO)O2)c(=O)n1 [Decitabine]	1	0.906	1	0.888	0.803	0.544	0.312	0.104	0.0392	1.08	1.04	0.99	0.967	1.08	0.973	0.635	0.277	0.155	104 ± 11%	94.3 ± 5.7%	98.29 ± 0.53%	98.5 ± 1.5%	80.2 ± 4.8%	93.1 ± 7.1%	112 ± 7.6%	102.5 ± 0.51%	95.65 ± 0.75%	95.7 ± 3.1%	85.5 ± 6.7%	83.8 ± 3.4%
